Values after ≈ are worked out from the molar mass of the structure shown. Read-outs that look alike come from different tables or passages of the source.
Assays:
S. aureus = assay: MIC, broth microdilution (CLSI); type: cell-based, Staphylococcus aureus; conditions: for MIC: read-out: minimum inhibitory concentration; for MIC50: used for selectivity index; for MIC range against S. aureus strains: collection of S. aureus strains incl. multidrug-resistant MRSA and VRSA
Experimental: (§1) S. aureus, S. epidermidis, E. faecalis, and E. faecium strains were routinely cultivated on tryptic soy agar (TSA) and grown for 18 h at 37 °C. S. aureus single colonies were subsequently transferred into 2 mL of tryptic soy broth (TSB) and grown for a further 18 h at 37 °C while being shaken at 180 rpm. S. pyogenes, S. agalactiae, and S. dysgalactiae strains were routinely cultured on TSA supplemented with 5% sheep blood and grown for 18 h at 37 °C with 5% CO2. E. coli was grown in LB broth at 37 °C. For LtaS-deficient strains, TSB was supplemented with 0.5 M NaCl to provide an osmotically balanced environment and instead grown at 30 °C. For strains harboring the pRMC2 tetracycline inducible vector,[61] the growth medium was supplemented with 10 μg/mL chloramphenicol and […] anhydrotetracycline hydrochloride (Sigma). Phenylalanine-arginine β-naphthylamide (PAβN) (Sigma) was dissolved in sterile water.
(§2) B. subtilis, staphylococcal, and enterococcal strains were grown in Mueller Hinton broth (MHB), while streptococcal strains were grown in MHB supplemented with 5% laked horse blood. All strains were grown for 18 h at 37 °C. The overnight cultures were subsequently subcultured 1:200 and grown to the exponential phase (OD600nm = 0.5–0.6) in fresh broth. 1771 and its derivatives 9–14 were reconstituted in DMSO and further diluted by performing a 1:2 serial dilution ranging between 256 and 0.125 μg/mL in a 96-well microtiter plate. One hundred microliters of 0.5 McFarland standardized inoculum (approximately equal to 5 × 10^5 cfu) were then dispensed into each well in the 96-well microtiter plate. The plate was incubated for 18 h at 37 °C.

S. epidermidis = assay: MIC, broth microdilution (CLSI); type: cell-based, Staphylococcus epidermidis; conditions: for MIC: read-out: minimum inhibitory concentration
Experimental: as §1, §2

E. faecalis (JH2-2) = assay: MIC, broth microdilution (CLSI); type: cell-based; conditions: Enterococcus faecalis
Experimental: as §1, §2

E. faecium (C68) = assay: MIC, broth microdilution (CLSI); type: cell-based; conditions: Enterococcus faecium
Experimental: as §1, §2

S. agalactiae = assay: MIC, broth microdilution (CLSI); type: cell-based; conditions: Streptococcus agalactiae
Experimental: as §1, §2

S. dysgalactiae = assay: MIC, broth microdilution (CLSI); type: cell-based; conditions: Streptococcus dysgalactiae
Experimental: as §1, §2

S. pyogenes = assay: MIC, broth microdilution (CLSI); type: cell-based; conditions: Streptococcus pyogenes
Experimental: as §1, §2

MRSA strain LAC = assay: Minimum bactericidal concentration; type: cell-based, Staphylococcus aureus; conditions: for classification bactericidal/bacteriostatic: time kill and MBC
Experimental: For an antibiotic with an MBC ≤ 4×, the MIC was considered to be bactericidal, whereas with an MBC > 4×, the MIC was considered to be bacteriostatic.[24] […] Percentage survival was calculated according to the starting inoculum of 5 × 10^5 cfu at time 0 h.

[1] = system: HepG2 human liver cancer cells; assay: HepG2 liver cell toxicity assay (MTT); type: cell-based; conditions: for IC50: Homo sapiens, 24 h incubation, MTT, concentration responsible for 50% HepG2 cell death
Experimental: HepG2 human liver cancer cells (ECACC: Cat no. 85011430) were grown in Dulbecco’s Modified Eagle’s Medium (DMEM; with 4.5 g/L glucose) supplemented with 10% (v/v) fetal bovine serum, 1% (v/v) minimal essential media, and 0.2% (v/v) penicillin/streptomycin/L-glutamine solution. Cells were then seeded at a concentration of 10,000 cells per well and allowed to attach and grow for 18 h. Following this, the medium was aspirated away and replaced with a medium containing a range of concentrations of 1771 and compound 13, and the cells were grown for a further 24 h. After this, cell viability was assessed using the MTT (3-[4,5-dimethylthiazol-2-yl]-2,5-diphenyltetrazolium bromide) assay. 1771 or 13 containing growth media was aspirated away and replaced with 100 μL of 1 mg/mL MTT (in growth media) and incubated for 50 min at 37 °C. Subsequently, this solution was removed, and 150 μL of isopropanol was added to the cells and allowed to incubate at RT with gentle rocking on an orbital shaker. Absorbance at abs595nm was recorded using a Sunrise plate reader, and the % cell viability was calculated compared to a no-compound control.

LTA = LTA quantification by Western blot; type: cell-based, Staphylococcus aureus; conditions: strain LAC, 1× and 4× the MIC
Experimental: Overnight cultures of S. aureus strains were diluted 1:200 in fresh TSB and grown to an optical density of OD600nm 0.3. […] Vancomycin and daptomycin at 1× and 4× MIC were also included as control antibiotics. Cells were then normalized to have 10 mL of OD600nm 0.6, pelleted at 4000 rpm, and resuspended in 300 μL of PBS containing 200 μg/mL lysostaphin. This suspension was then incubated at 37 °C for 45 min to allow digestion of the cell wall to occur. One hundred microlitres of 4× SDS sample buffer were then added, and the mixture was boiled at 95 °C for 20 min. The insoluble material was then removed by pelleting at 16,000 rpm for 10 min. The supernatant containing LTA was then subjected to SDS-PAGE on a 4–20% Tris-glycine gel (Bio-Rad). The gel was transferred onto a PVDF membrane using a Trans-Blot Turbo Transfer System (Bio-Rad). The membrane was blocked overnight in TBST containing 5% semi-skimmed milk before being incubated with a mouse anti-LTA antibody (Hycult; HM2048; 1:2000 dilution) followed by a goat antimouse-HRP secondary antibody (Proteintech; SA00001; 1:2000 dilution) before being visualized using an Amersham-ECL kit (Cytiva).

[2] = Staphylococcus aureus, NEWMAN, strain Newman
[3] = Staphylococcus aureus, strain EMRSA-15
[4] = Staphylococcus aureus, strain LAC
[5] = Staphylococcus aureus, strain MRSA252
[6] = Staphylococcus aureus, strain MW2
[7] = Staphylococcus aureus, strain Mu3
[8] = Staphylococcus aureus, strain Mu50
[9] = Staphylococcus aureus, strain SH1000
[10] = Staphylococcus aureus, strain TW20
[11] = Staphylococcus epidermidis, strain 305
[12] = Staphylococcus epidermidis, strain 311
[13] = Staphylococcus epidermidis, strain 319
[14] = Staphylococcus epidermidis, strain 322
[15] = Staphylococcus epidermidis, strain 771
[16] = Staphylococcus epidermidis, strain 780
[17] = Staphylococcus epidermidis, strain RP62A
[18] = NCTC10238, S. dysgalactiae (NCTC 10238)
[19] = NCTC13762, S. dysgalactiae (NCTC 13762)
[20] = NCTC8198, S. pyogenes (NCTC 8198)
[21] = NCTC12048, S. pyogenes (NCTC 12048)

SMILES | MIC (S. aureus; [2]) | MIC (S. aureus; [3]) | MIC (S. aureus; [4]) | MIC (S. aureus; [5]) | MIC (S. aureus; [6]) | MIC (S. aureus; [7]) | MIC (S. aureus; [8]) | MIC (S. aureus; [9]) | MIC (S. aureus; [10]) | MIC50 (S. aureus; Staphylococcus aureus) | MIC range against S. aureus strains (S. aureus) | MIC (S. epidermidis; [11]) | MIC (S. epidermidis; [12]) | MIC (S. epidermidis; [13]) | MIC (S. epidermidis; [14]) | MIC (S. epidermidis; [15]) | MIC (S. epidermidis; [16]) | MIC (S. epidermidis; [17]) | MIC (E. faecalis (JH2-2)) | MIC (E. faecium (C68)) | also measured
O=C(COC(=O)Cc1coc2ccc3ccccc3c12)Nc1nnc(-c2ccc(S(F)(F)(F)(F)F)cc2)o1 [Compound 13, 2-Oxo-2-((5-(4-(pentafluoro-l6-sulfaneyl)phenyl)-1,3,4-oxadiazol-2-yl)amino)ethyl 2-(Naphtho[2,1-b]furan-1-yl)acetate] | 0.5 µg/mL (≈ 0.903 µM) | 0.5 µg/mL (≈ 0.903 µM) | 0.5 µg/mL (≈ 0.903 µM) | 1 µg/mL (≈ 1.81 µM) | 0.5 µg/mL (≈ 0.903 µM) | 0.5 µg/mL (≈ 0.903 µM) | 0.5 µg/mL (≈ 0.903 µM) | 0.5 µg/mL (≈ 0.903 µM) | 0.5 µg/mL (≈ 0.903 µM) | 0.5 µg/mL (≈ 0.903 µM) | 0.5 to 1 µg/mL | 0.5 to 1 µg/mL (≈ 0.903 to 1.81 µM) | 0.5 µg/mL (≈ 0.903 µM) | 1 µg/mL (≈ 1.81 µM) | 0.5 µg/mL (≈ 0.903 µM) | 0.5 µg/mL (≈ 0.903 µM) | 0.5 to 1 µg/mL (≈ 0.903 to 1.81 µM) | 0.5 µg/mL (≈ 0.903 µM) | 2 µg/mL (≈ 3.61 µM) | > 128 µg/mL | MIC90 (S. aureus; Staphylococcus aureus, against S. aureus): 0.5 µg/mL (≈ 0.903 µM); fold increase in activity compared to 1771 (S. aureus; multidrug-resistant S. aureus strains): 16- to 32 fold; MIC90 (S. epidermidis; Staphylococcus epidermidis): 1 µg/mL (≈ 1.81 µM); MIC (S. agalactiae; S. agalactiae (18R521)): 64 µg/mL (≈ 116 µM); MIC (S. agalactiae; S. agalactiae (COH1)): 128 µg/mL (≈ 231 µM); MIC (S. dysgalactiae; [18]): 64 µg/mL (≈ 116 µM); MIC (S. dysgalactiae; [19]): 64 µg/mL (≈ 116 µM); MIC (S. pyogenes; [20]): 16 to 32 µg/mL (≈ 28.9 to 57.8 µM); MIC (S. pyogenes; [21]): 64 µg/mL (≈ 116 µM); minimal bactericidal concentration (MBC) (MRSA strain LAC; 8 to 128 μg/mL (up to 256× MIC)): could not be elucidated; classification bactericidal/bacteriostatic (MRSA strain LAC): bacteriostatic; IC50 [1]: 27.3 µg/mL (≈ 49.3 µM); LTA signal by Western blot (LTA): reduction in LTA abundance
O=C(COC(=O)Cc1coc2ccc3ccccc3c12)Nc1nnc(-c2ccccc2)o1 [Compound 1771, 2-Oxo-2-((5-phenyl-1,3,4-oxadiazol-2-yl)amino)ethyl 2-(Naphtho[2,1-b]furan-1-yl)acetate, reference compound] | 4 to 8 µg/mL (≈ 9.36 to 18.7 µM) | 8 to 16 µg/mL (≈ 18.7 to 37.4 µM) | 8 µg/mL (≈ 18.7 µM) | 8 µg/mL (≈ 18.7 µM) | 8 µg/mL (≈ 18.7 µM) | 8 to 16 µg/mL (≈ 18.7 to 37.4 µM) | 4 to 8 µg/mL (≈ 9.36 to 18.7 µM) | 4 to 8 µg/mL (≈ 9.36 to 18.7 µM) | 8 µg/mL (≈ 18.7 µM) | 8 µg/mL (≈ 18.7 µM) | 4 to 16 µg/mL | 8 to 16 µg/mL (≈ 18.7 to 37.4 µM) | 8 to 16 µg/mL (≈ 18.7 to 37.4 µM) | 8 to 16 µg/mL (≈ 18.7 to 37.4 µM) | 16 µg/mL (≈ 37.4 µM) | 8 to 16 µg/mL (≈ 18.7 to 37.4 µM) | 8 to 16 µg/mL (≈ 18.7 to 37.4 µM) | 8 to 16 µg/mL (≈ 18.7 to 37.4 µM) | 16 µg/mL (≈ 37.4 µM) | > 128 µg/mL | MIC range against S. epidermidis strains (S. epidermidis; collection of S. epidermidis strains): 8 to 16 µg/mL; MIC (S. agalactiae; S. agalactiae (18R521)): 128 µg/mL (≈ 299 µM); MIC (S. agalactiae; S. agalactiae (COH1)): > 128 µg/mL; MIC (S. dysgalactiae; [18]): > 128 µg/mL; MIC (S. dysgalactiae; [19]): 128 µg/mL (≈ 299 µM); MIC (S. pyogenes; [20]): 32 to 64 µg/mL (≈ 74.9 to 150 µM); MIC (S. pyogenes; [21]): 128 µg/mL (≈ 299 µM); classification bactericidal/bacteriostatic (MRSA strain LAC): bacteriostatic; selectivity index (IC50/MIC50) ([1]; HepG2 IC50 / S. aureus MIC50): 3.08; IC50 [1]: 24.7 µg/mL (≈ 57.8 µM); LTA signal by Western blot (LTA): reduction in LTA abundance

— publication PMC10644342, “Improved Antibacterial Activity of 1,3,4-Oxadiazole-Based Compounds That Restrict Staphylococcus aureus Growth Independent of LtaS Function” (ACS Infectious Diseases, 2023)
